Data as given in ChEMBL document CHEMBL1149607, “Synthesis, characterization and antimicrobial activity of new aliphatic sulfonamide” (2007).
Converted amounts (≈) assume the structure as drawn.

System: Candida albicans
Assay: Antifungal activity against Candida albicans at 50 ug after 48 hrs by disc diffusion method
Format: functional
Conditions: read-out: IZ

Row | Structure (SMILES) | zone of inhibition at 50 µg/disc
1 | CC(=O)N1CCN(c2ccc(OC[C@H]3CO[C@](Cn4ccnc4)(c4ccc(Cl)cc4Cl)O3)cc2)CC1 [KETOCONAZOLE] | 16 mm

System: Candida albicans
Assay: Antifungal activity against Candida albicans after 48 hrs by disc diffusion method
Format: functional
Conditions: not given

Row | Structure (SMILES) | inhibition zone (IZ)
2 | CCCCS(=O)(=O)NCCCCNS(=O)(=O)CCCC | 12 mm
3 | CCCCS(=O)(=O)NCCCCCNS(=O)(=O)CCCC | 13 mm
4 | CCCS(=O)(=O)NCCCNS(=O)(=O)CCC | 12 mm
5 | CCCCS(=O)(=O)NCCCNS(=O)(=O)CCCC | 10 mm

System: Escherichia coli
Assay: Antibacterial activity against Escherichia coli ATCC 11230 after 24 hrs by disc diffusion method
Format: functional
Conditions: not given

Row | Structure (SMILES) | inhibition zone (IZ)
6 | CCCCS(=O)(=O)NCCCCNS(=O)(=O)CCCC | 11 mm
7 | CCCCS(=O)(=O)NCCNS(=O)(=O)CCCC | 10 mm
8 | CCCCS(=O)(=O)NCCCCCNS(=O)(=O)CCCC | 12 mm
9 | CCCS(=O)(=O)NCCNS(=O)(=O)CCC | 11 mm
10 | CCCS(=O)(=O)NCCCNS(=O)(=O)CCC | 12 mm
11 | CCCS(=O)(=O)NCCCCNS(=O)(=O)CCC | 12 mm
12 | CCCCS(=O)(=O)NCCCNS(=O)(=O)CCCC | 10 mm

System: Bacillus cereus
Assay: Antibacterial activity against Bacillus cereus ATCC […] at 1 ug after 24 hrs by disc diffusion method
Format: functional
Conditions: read-out: IZ

Row | Structure (SMILES) | zone of inhibition at 1 µg/disc
13 | Cc1onc(-c2ccccc2)c1C(=O)N[C@@H]1C(=O)N2[C@@H]1SC(C)(C)[C@@H]2C(=O)O [OXACILLIN] | 9 mm

System: Listeria monocytogenes
Assay: Antibacterial activity against Listeria monocytogenes Li6 isolate by microdilution broth method
Format: functional
Conditions: not given

Row | MIC | Structure (SMILES)
14 | 648 µg/mL (≈ 1970 µM) | CCCCS(=O)(=O)NCCCCNS(=O)(=O)CCCC
15 | 216 µg/mL (≈ 719 µM) | CCCCS(=O)(=O)NCCNS(=O)(=O)CCCC
16 | 432 µg/mL (≈ 1260 µM) | CCCCS(=O)(=O)NCCCCCNS(=O)(=O)CCCC
17 | 300 µg/mL (≈ 1100 µM) | CCCS(=O)(=O)NCCNS(=O)(=O)CCC
18 | 532 µg/mL (≈ 1860 µM) | CCCS(=O)(=O)NCCCNS(=O)(=O)CCC
19 | 228 µg/mL (≈ 759 µM) | CCCS(=O)(=O)NCCCCNS(=O)(=O)CCC
20 | 225 µg/mL (≈ 715 µM) | CCCCS(=O)(=O)NCCCNS(=O)(=O)CCCC

System: Staphylococcus aureus
Assay: Antibacterial activity against Staphylococcus aureus ATCC 25923 after 24 hrs by disc diffusion method
Format: functional
Conditions: not given

Row | Structure (SMILES) | inhibition zone (IZ)
21 | CCCCS(=O)(=O)NCCCCNS(=O)(=O)CCCC | 10 mm
22 | CCCS(=O)(=O)NCCNS(=O)(=O)CCC | 12 mm
23 | CCCS(=O)(=O)NCCCNS(=O)(=O)CCC | 11 mm

System: Staphylococcus aureus
Assay: Antibacterial activity against Staphylococcus aureus ATCC 25923 by microdilution broth method
Format: functional
Conditions: not given

Row | MIC | Structure (SMILES)
24 | 648 µg/mL (≈ 1970 µM) | CCCCS(=O)(=O)NCCCCNS(=O)(=O)CCCC
25 | 216 µg/mL (≈ 719 µM) | CCCCS(=O)(=O)NCCNS(=O)(=O)CCCC
26 | 432 µg/mL (≈ 1260 µM) | CCCCS(=O)(=O)NCCCCCNS(=O)(=O)CCCC
27 | 300 µg/mL (≈ 1100 µM) | CCCS(=O)(=O)NCCNS(=O)(=O)CCC
28 | 456 µg/mL (≈ 1590 µM) | CCCS(=O)(=O)NCCCNS(=O)(=O)CCC
29 | 336 µg/mL (≈ 1120 µM) | CCCS(=O)(=O)NCCCCNS(=O)(=O)CCC
30 | 270 µg/mL (≈ 859 µM) | CCCCS(=O)(=O)NCCCNS(=O)(=O)CCCC

System: Listeria monocytogenes
Assay: Antibacterial activity against Listeria monocytogenes Li6 isolate after 24 hrs by disc diffusion method
Format: functional
Conditions: not given

Row | Structure (SMILES) | inhibition zone (IZ)
31 | CCCS(=O)(=O)NCCNS(=O)(=O)CCC | 16 mm
32 | CCCS(=O)(=O)NCCCNS(=O)(=O)CCC | 11 mm
33 | CCCCS(=O)(=O)NCCCNS(=O)(=O)CCCC | 11 mm

System: Bacillus cereus
Assay: Antibacterial activity against Bacillus cereus ATCC […] after 24 hrs by disc diffusion method
Format: functional
Conditions: not given

Row | Structure (SMILES) | inhibition zone (IZ)
34 | CCCCS(=O)(=O)NCCCNS(=O)(=O)CCCC | 10 mm

System: Candida albicans
Assay: Antifungal activity against Candida albicans by microdilution broth method
Format: functional
Conditions: not given

Row | MIC | Structure (SMILES)
35 | 555 µg/mL (≈ 1690 µM) | CCCCS(=O)(=O)NCCCCNS(=O)(=O)CCCC
36 | 324 µg/mL (≈ 1080 µM) | CCCCS(=O)(=O)NCCNS(=O)(=O)CCCC
37 | 540 µg/mL (≈ 1580 µM) | CCCCS(=O)(=O)NCCCCCNS(=O)(=O)CCCC
38 | 300 µg/mL (≈ 1100 µM) | CCCS(=O)(=O)NCCNS(=O)(=O)CCC
39 | 532 µg/mL (≈ 1860 µM) | CCCS(=O)(=O)NCCCNS(=O)(=O)CCC
40 | 336 µg/mL (≈ 1120 µM) | CCCS(=O)(=O)NCCCCNS(=O)(=O)CCC
41 | 315 µg/mL (≈ 1000 µM) | CCCCS(=O)(=O)NCCCNS(=O)(=O)CCCC

System: Escherichia coli
Assay: Antibacterial activity against Escherichia coli ATCC 11230 by microdilution broth method
Format: functional
Conditions: not given

Row | MIC | Structure (SMILES)
42 | 555 µg/mL (≈ 1690 µM) | CCCCS(=O)(=O)NCCCCNS(=O)(=O)CCCC
43 | 243 µg/mL (≈ 809 µM) | CCCCS(=O)(=O)NCCNS(=O)(=O)CCCC
44 | 486 µg/mL (≈ 1420 µM) | CCCCS(=O)(=O)NCCCCCNS(=O)(=O)CCCC
45 | 150 µg/mL (≈ 551 µM) | CCCS(=O)(=O)NCCNS(=O)(=O)CCC
46 | 228 µg/mL (≈ 796 µM) | CCCS(=O)(=O)NCCCNS(=O)(=O)CCC
47 | 240 µg/mL (≈ 799 µM) | CCCS(=O)(=O)NCCCCNS(=O)(=O)CCC
48 | 225 µg/mL (≈ 715 µM) | CCCCS(=O)(=O)NCCCNS(=O)(=O)CCCC

System: Staphylococcus aureus
Assay: Antibacterial activity against Staphylococcus aureus ATCC 25923 at 10U by disc diffusion method
Format: functional
Conditions: not given

Row | Structure (SMILES) | inhibition zone (IZ)
49 | CC1(C)S[C@@H]2[C@H](NC(=O)Cc3ccccc3)C(=O)N2[C@H]1C(=O)O [PENICILLIN G] | 19 mm

System: Bacillus cereus
Assay: Antibacterial activity against Bacillus cereus ATCC […] by microdilution broth method
Format: functional
Conditions: not given

Row | MIC | Structure (SMILES)
50 | 463 µg/mL (≈ 1410 µM) | CCCCS(=O)(=O)NCCCCNS(=O)(=O)CCCC
51 | 243 µg/mL (≈ 809 µM) | CCCCS(=O)(=O)NCCNS(=O)(=O)CCCC
52 | 540 µg/mL (≈ 1580 µM) | CCCCS(=O)(=O)NCCCCCNS(=O)(=O)CCCC
53 | 250 µg/mL (≈ 918 µM) | CCCS(=O)(=O)NCCNS(=O)(=O)CCC
54 | 380 µg/mL (≈ 1330 µM) | CCCS(=O)(=O)NCCCNS(=O)(=O)CCC
55 | 336 µg/mL (≈ 1120 µM) | CCCS(=O)(=O)NCCCCNS(=O)(=O)CCC
56 | 180 µg/mL (≈ 572 µM) | CCCCS(=O)(=O)NCCCNS(=O)(=O)CCCC

System: Escherichia coli
Assay: Antibacterial activity against Escherichia coli ATCC 11230 at 10 ug after 24 hrs by disc diffusion method
Format: functional
Conditions: ATCC 11230, 24 h, read-out: IZ

Row | Structure (SMILES) | zone of inhibition at 10 µg/disc
57 | CC1(C)S[C@@H]2[C@H](NC(=O)[C@H](N)c3ccccc3)C(=O)N2[C@H]1C(=O)O [AMPICILLIN] | 9 mm
